In US10787459B2, “Bicyclic compounds as ATX inhibitors” (Hoffmann-La Roche Inc., priority 2015, dated 2020) one finds IC50 data, which are given here for 19 molecules.

A word on the IC50: it is the concentration at which inhibition is half-maximal.

The first test has as its target ATX (human His-tagged) (Homo sapiens (Human), UniProt Q13822). The test can be described thus: Human ATX enzyme inhibition assay (fluorescence quenching, MR121 substrate). It is filed as biochemical. To be noted: 30 nM ATX, 1 μM MR121 substrate, 30° C., pH 8.0; read-out: ATX IC50. From the text:
Human ATX Enzyme Inhibition Assay
Assay working solutions were made as follows:
As for `O=C(OCc1ccc(OC(F)(F)F)cc1)N1C[C@@H]2CN(C(=O)c3ccc4[nH]nnc4c3)C[C@@]2(F)C1` (relative stereo) [Example 1.00, trans-5-(1H-Benzotriazole-5-carbonyl)-3a-fluoro-hexahydro-pyrrolo[3,4-c]pyrrole-2-carboxylic acid 4-trifluoromethoxy-benzyl ester], the IC50 amounted to 5 nM.

In the case of `CO[C@]12CN(C(=O)OCc3ccc(OC(F)(F)F)cc3)C[C@@H]1CN(C(=O)c1ccc3[nH]nnc3c1)C2` (relative stereo) [Example 1.01, trans-5-(1H-benzotriazole-5-carbonyl)-3a-methoxy-hexahydro-pyrrolo[3,4-c]pyrrole-2-carboxylic acid 4-trifluoromethoxy-benzyl ester], the IC50 came out at 12 nM.

With `CO[C@]12CN(C(=O)CCc3ccc(OC(F)(F)F)cc3)C[C@@H]1CN(C(=O)c1ccc3[nH]nnc3c1)C2` (relative stereo) [Example 1.02, trans-1-[5-(1H-benzotriazole-5-carbonyl)-3a-methoxy-3,4,6,6a-tetrahydro-1H-pyrrolo[3,4-c]pyrrol-2-yl]-3-[4-(trifluoromethoxy)phenyl]propan-1-one], the IC50 turned out to be 10 nM.

Turning to `CO[C@@]12CN(C(=O)c3cc(OCC4CCOCC4)nc(C4CC4)c3)C[C@H]1CN(C(=O)c1ccc3[nH]nnc3c1)C2` (relative stereo) [Example 1.03, trans-[5-[2-cyclopropyl-6-(oxan-4-ylmethoxy)pyridine-4-carbonyl]-3a-methoxy-3,4,6,6a-tetrahydro-1H-pyrrolo[3,4-c]pyrrol-2-yl]-(1H-benzotriazol-5-yl)methanone], the IC50 amounted to 13 nM.

Take `C[C@]12CN(C(=O)OCc3ccc(OC(F)(F)F)cc3)C[C@@H]1CN(C(=O)c1ccc3[nH]nnc3c1)C2` (relative stereo) [Example 1.04, trans-5-(1H-benzotriazole-5-carbonyl)-3a-methyl-hexahydro-pyrrolo[3,4-c]pyrrole-2-carboxylic acid 4-trifluoromethoxy-benzyl ester]: the IC50 is 13 nM.

With `CO[C@]12CN(C(=O)CCc3ccc(OC(F)(F)F)cc3)C[C@@H]1CN(C(=O)c1ccc3[nH]c(=O)n(C)c3c1)C2` (relative stereo) [Example 1.05, trans-5-[3a-methoxy-2-[3-[4-(trifluoromethoxy)phenyl]propanoyl]-3,4,6,6a-tetrahydro-1H-pyrrolo[3,4-c]pyrrole-5-carbonyl]-3-methyl-1H-benzimidazol-2-one], the concentration for half-maximal inhibition (IC50) came out at 18 nM.

Consider `CO[C@@]12CN(C(=O)c3cc(OCC4CCOCC4)nc(C4CC4)c3)C[C@H]1CN(C(=O)c1ccc3[nH]c(=O)n(C)c3c1)C2` (relative stereo) [Example 1.06, trans-5-[5-[2-cyclopropyl-6-(oxan-4-ylmethoxy)pyridine-4-carbonyl]-3a-methoxy-3,4,6,6a-tetrahydro-1H-pyrrolo[3,4-c]pyrrole-2-carbonyl]-3-methyl-1H-benzimidazol-2-one], for which the IC50 stood at 2 nM.

For the molecule `CO[C@]12CN(C(=O)CCc3ccc(OC(F)(F)F)cc3)C[C@@H]1CN(C(=O)N1CCc3[nH]nnc3C1)C2` (relative stereo) [Example 2.01, trans-1-[3a-methoxy-5-(1,4,6,7-tetrahydrotriazolo[4,5-c]pyridine-5-carbonyl)-3,4,6,6a-tetrahydro-1H-pyrrolo[3,4-c]pyrrol-2-yl]-3-[4-(trifluoromethoxy)phenyl]propan-1-one], the IC50 came to 30 nM.

Regarding `CO[C@]12CN(C(=O)CCc3ccc(OC(F)(F)F)cc3)C[C@@H]1CN(C(=O)N1CCc3c(O)noc3C1)C2` (relative stereo) [Example 2.02, trans-1-[5-(3-hydroxy-5,7-dihydro-4H-[1,2]oxazolo[5,4-c]pyridine-6-carbonyl)-3a-methoxy-3,4,6,6a-tetrahydro-1H-pyrrolo[3,4-c]pyrrol-2-yl]-3-[4-(trifluoromethoxy)phenyl]propan-1-one], the IC50 stood at 120 nM.

Regarding `CO[C@]12CN(C(=O)c3cc(OCC4CCOCC4)nc(C4CC4)c3)C[C@@H]1CN(C(=O)N1CCc3c(O)noc3C1)C2` (relative stereo) [Example 2.03, trans-[5-(3-hydroxy-5,7-dihydro-4H-[1,2]oxazolo[5,4-c]pyridine-6-carbonyl)-3a-methoxy-3,4,6,6a-tetrahydro-1H-pyrrolo[3,4-c]pyrrol-2-yl]-[2-cyclopropyl-6-(oxan-4-ylmethoxy)pyridin-4-yl]methanone], the IC50 amounted to 18 nM.

Turning to `CO[C@@]12CN(C(=O)c3cc(OCC4CCOCC4)nc(C4CC4)c3)C[C@H]1CN(C(=O)N1CCc3c(O)noc3C1)C2` (single isomer, unassigned) [Example 3.01, trans-[5-(3-hydroxy-5,7-dihydro-4H-[1,2]oxazolo[5,4-c]pyridine-6-carbonyl)-3a-methoxy-3,4,6,6a-tetrahydro-1H-pyrrolo[3,4-c]pyrrol-2-yl]-[2-cyclopropyl-6-(oxan-4-ylmethoxy)pyridin-4-yl]methanone], the IC50 was 20 nM.

As for `C[C@@]12CN(C(=O)OCc3ccc(OC(F)(F)F)cc3)C[C@H]1CN(C(=O)c1ccc3[nH]nnc3c1)C2` (single isomer, unassigned) [Example 3.02, (+)-trans-5-(1H-benzotriazole-5-carbonyl)-3a-methyl-hexahydro-pyrrolo[3,4-c]pyrrole-2-carboxylic acid 4-trifluoromethoxy-benzyl ester], the IC50 turned out to be 12 nM.

In the case of `CO[C@@]12CN(C(=O)OCc3ccc(OC(F)(F)F)cc3)C[C@H]1CN(C(=O)c1ccc3[nH]nnc3c1)C2` (single isomer, unassigned) [Example 3.03, (−)-trans-5-(1H-benzotriazole-5-carbonyl)-3a-methoxy-hexahydro-pyrrolo[3,4-c]pyrrole-2-carboxylic acid 4-trifluoromethoxy-benzyl ester], the IC50 was 19 nM.

For the molecule `CO[C@@]12CN(C(=O)c3cc(OCC4CCOCC4)nc(C4CC4)c3)C[C@H]1CN(C(=O)N1CCc3c(O)noc3C1)C2` (single isomer, unassigned) [Example 4.01, trans-[5-(3-hydroxy-5,7-dihydro-4H-[1,2]oxazolo[5,4-c]pyridine-6-carbonyl)-3a-methoxy-3,4,6,6a-tetrahydro-1H-pyrrolo[3,4-c]pyrrol-2-yl]-[2-cyclopropyl-6-(oxan-4-ylmethoxy)pyridin-4-yl]methanone], the IC50 was found to be 8 nM.

Take `C[C@@]12CN(C(=O)OCc3ccc(OC(F)(F)F)cc3)C[C@H]1CN(C(=O)c1ccc3[nH]nnc3c1)C2` (single isomer, unassigned) [Example 4.02, (−)-trans-5-(1H-benzotriazole-5-carbonyl)-3a-methyl-hexahydro-pyrrolo[3,4-c]pyrrole-2-carboxylic acid 4-trifluoromethoxy-benzyl ester]: the IC50 came out at 6 nM.

Regarding `CO[C@@]12CN(C(=O)OCc3ccc(OC(F)(F)F)cc3)C[C@H]1CN(C(=O)c1ccc3[nH]nnc3c1)C2` (single isomer, unassigned) [Example 4.03, (+)-trans-5-(1H-benzotriazole-5-carbonyl)-3a-methoxy-hexahydro-pyrrolo[3,4-c]pyrrole-2-carboxylic acid 4-trifluoromethoxy-benzyl ester], the IC50 is 7 nM.

The test is the same for the next values; noted with them: ATX IC50, 30 nM ATX, 1 μM MR121 substrate, 30° C., pH 8.0.
Molecule `CO[C@]12CN(C(=O)c3cc(OCC4CCOCC4)nc(C4CC4)c3)C[C@@H]1CN(C(=O)N1CCc3[nH]nnc3C1)C2` (racemic) [Example 2.00, trans-[3a-Methoxy-5-(1,4,6,7-tetrahydrotriazolo[4,5-c]pyridine-5-carbonyl)-3,4,6,6a-tetrahydro-1H-pyrrolo[3,4-c]pyrrol-2-yl]-[2-cyclopropyl-6-(oxan-4-ylmethoxy)pyridin-4-yl]methanone] had an IC50 of 12 nM.

Regarding `CO[C@]12CN(C(=O)c3cc(OCC4CCOCC4)nc(C4CC4)c3)C[C@@H]1CN(C(=O)N1CCc3[nH]nnc3C1)C2` (single isomer, unassigned) [Example 3.00, trans-[3a-methoxy-5-(1,4,6,7-tetrahydrotriazolo[4,5-c]pyridine-5-carbonyl)-3,4,6,6a-tetrahydro-1H-pyrrolo[3,4-c]pyrrol-2-yl]-[2-cyclopropyl-6-(oxan-4-ylmethoxy)pyridin-4-yl]methanone], the 50% inhibitory concentration (IC50) amounted to 6 nM.

Molecule `CO[C@]12CN(C(=O)c3cc(OCC4CCOCC4)nc(C4CC4)c3)C[C@@H]1CN(C(=O)N1CCc3[nH]nnc3C1)C2` (single isomer, unassigned) [Example 4.00, trans-[3a-methoxy-5-(1,4,6,7-tetrahydrotriazolo[4,5-c]pyridine-5-carbonyl)-3,4,6,6a-tetrahydro-1H-pyrrolo[3,4-c]pyrrol-2-yl]-[2-cyclopropyl-6-(oxan-4-ylmethoxy)pyridin-4-yl]methanone] displayed an IC50 of 10 nM.
